Among the data in PMC4726048 (2016) are ΔTm, binding and G4DC50 values, retold here.

SMILES strings stand for the structures.

By ΔTm is commonly meant the change in melting temperature against a reference sample.

Assay [1] relates to F21T (DNA, G4) GGGTTAGGGTTAGGGTTAGGG
In words: FRET melting. The following applies: 0.2 μM DNA; 3 μM compound.

The subject of assay [2] is F10T (DNA, hairpin, HEG linker between nt 8 and 9) TATAGCTATATAGCTATAT
In words: FRET melting. Conditions: 0.2 μM DNA; 3 μM compound.

The subject of assay [3] is CCR5-DEL (DNA, single strand) CTCATTTTCCATACATTAAAGATAGTCAT
Put plainly: luminescence enhancement. The following applies: 20 mM Tris-HCl pH 7.4; 1 μM compound, 5 μM DNA.

Assay [4] relates to ON2m (DNA, single strand) AAGTTTCCGACTCCCCCAGGTGCCTTTGAA
Put plainly: luminescence enhancement. The following applies: ON2m used in place of ON2 in adenosine assay; 80 μM adenosine.

In assay [5] the test system is 5'-side loop, 5'-G3TnG3T3G3T3G3-3', n = 1 (DNA, G4) GGGTGGGTTTGGGTTTGGG
Put plainly: luminescence enhancement. Conditions: 1 μM compound; 2.7-fold enhancement.

For assay [6], the system named is 5'-side loop, 5'-G3TnG3T3G3T3G3-3', n = 15 (DNA, G4) GGGTTTTTTTTTTTTTTTGGGTTTGGGTTTGGG
Put plainly: luminescence enhancement. The following applies: 1 μM compound; 6.9-fold enhancement.

Assay [7] concerns central loop, 5'-G3T3G3TnG3T3G3-3', n = 1 (DNA, G4) GGGTTTGGGTGGGTTTGGG
Put plainly: luminescence enhancement. Conditions: 1 μM compound; 2.4-fold enhancement.

The test system of assay [8] is central loop, 5'-G3T3G3TnG3T3G3-3', n = 15 (DNA, G4) GGGTTTGGGTTTTTTTTTTTTTTTGGGTTTGGG
Put plainly: luminescence enhancement. Conditions: 1 μM compound; 8.3-fold enhancement.

In assay [9] the test system is 3'-side loop, 5'-G3T3G3T3G3TnG3-3', n = 1 (DNA, G4) GGGTTTGGGTTTGGGTGGG
In words: luminescence enhancement. Conditions: 1 μM compound; 2.3-fold enhancement.

Assay [10] has as its system 3'-side loop, 5'-G3T3G3T3G3TnG3-3', n = 15 (DNA, G4) GGGTTTGGGTTTGGGTTTTTTTTTTTTTTTGGG
Put plainly: luminescence enhancement. Conditions: 1 μM compound; 7.2-fold enhancement.

In assay [11] the test system is ON2 (DNA, G4) GGGTTTGGGACTCCCCCAGGTGGGTTTGGG
In words: G4-FID (thiazole orange displacement). Conditions: Tris-HCl buffer; thiazole orange displaced; 0.25 μM DNA.

Assay [12] deals with ds17 (DNA, duplex) CCAGTTCGTAGTAACCC/GGGTTACTACGAACTGG
In words: G4-FID (thiazole orange displacement). The following applies: Tris-HCl buffer; thiazole orange displaced; 0.25 μM DNA; under 50% displaced at highest concentration tested.

The test system of assay [13] is ON1 (adenosine aptamer) (DNA, aptamer) ACCTGGGGGAGTATTGCGGAGGAAGGT
Put plainly: luminescence displacement assay (complex 1/ON1/ON2). Conditions: 100 mM NaCl, 10 mM MgCl2, 75 mM K+, 20 mM Tris-HCl pH 7.4, 37 °C.

Setting [14] is: ON2 capture strand, 200 μM highest tested.

`Cc1cccnc1-c1[c-]cccc1.Cc1cccnc1-c1[c-]cccc1.[Ir+3].c1ccc(-c2ccc3ccc4ccc(-c5ccccc5)nc4c3n2)cc1`: the ΔTm in [1] was ~ 7.0 °C; in assay [2] it was 3.0 °C. The binding result in [3] is reported as “weak”; in [4] it was “weak”; in assay [5], “yes”; in assay [6], “yes”; in [7], “yes”; in [8], “yes”. Moreover, the results for the binding result in assay [9], in assay [10] and in assay [12] were “yes”, “yes” and “weak”, respectively. This compound registered a G4DC50 in assay [11] of 7.0 µM.
As for `Nc1ccn([C@@H]2O[C@H](CO)[C@@H](O)[C@H]2O)c(=O)n1`, the binding result in [13] (setting [14]) is reported as “no”.
Regarding `Nc1nc2c(ncn2[C@@H]2O[C@H](CO)[C@@H](O)[C@H]2O)c(=O)[nH]1`, in assay [13] (setting [14]), the binding entry is listed as “no”.
In the case of `Nc1ncnc2c1ncn2[C@@H]1O[C@H](CO)[C@@H](O)[C@H]1O`, in assay [13] (ON2 capture strand displaced), the binding result is on record as “yes”.
For the compound `O=c1ccn([C@@H]2O[C@H](CO)[C@@H](O)[C@H]2O)c(=O)[nH]1`, in assay [13] (setting [14]), the binding entry is “no”.
